A short description of this assay: Antioxidative activity measurement using linoleic acid (ferric thiocyanate method). The settings on record: 0.023 mg of vitamin C (amount contained in 0.4 mg of the solid); control = 100%.

Description: Next, the antioxidative activity of the obtained extract was measured by antioxidative activity measurement using linoleic acid (ferric thiocyanate method).
Specifically, a mixture of 0.4 mg of the acerola seed extract, 2 ml of 99.5% ethanol, and 2 ml of distilled water was mixed with a reaction liquid composed of 2 ml of 2.5% (w/v) linoleic acid (99.5% ethanol solution) and 4 ml of a 0.05 M phosphate buffer (pH 7.0), and placed in a brown threaded bottle, to thereby prepare 10 ml of a test liquid. On the other hand, test liquids as positive controls were prepared in the same way using α-tocopherol or BHA in place of the acerola seed extract at the same content in the reaction liquid. […] Samples were taken out at intervals, and measured by the following methods. […]
First, to a mixture of 0.1 ml of the sample, 9.7 ml of 75% ethanol, and 0.1 ml of a 30% aqueous solution of ammonium rhodanide, 0.1 ml of 2×10^−2 M ferrous chloride (3.5% hydrochloric acid solution) was added, and exactly 3 minutes later, the absorbance at 500 nm was measured. The same measurement was made with the blanks, and Δabsorbance was taken according to the following formula: Δ absorbance=(absorbance of main sample)−(absorbance of blank). The absorbance increases with oxidation of the sample, and after reaching the maximum, decreases with consumption of the sample to be oxidized. […]

Regarding `O=C1O[C@H]([C@@H](O)CO)C(O)=C1O` [vitamin C], the “degree of oxidation on day 7” value is 115.8%.

These data come from patent US7090872B2, “Antioxidant, skin preparation for external use, cosmetic and food” (Nichirei Biosciences Inc., priority 2002, dated 2006).
